In PMC12392461, “Beyond Estrogenicity: A Comparative Assessment of Bisphenol A and Its Alternatives in In Vitro Assays Questions Safety of Replacements” (Environmental Science & Technology, 2025):
Read-outs that look alike come from different tables or passages of the source.

Legend:
H4IIe (AhR CALUX) = conditions: for IC10, linear transformed / IC10, linear / logIC10: Bioassay AhR, dosing range all; for IC10, linear transformed / IC10, linear / logIC10 / IC10, H4IIe, AhR: cytotoxicity; for IC10, linear: linear model fit; for logIC10: log-logistic model fit; for IC10, H4IIe, AhR: H4IIe (AhR assay cells)
In short: (§1)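 IncuCyte confluency readout, pre- vs post-24 h exposure, normalized to no-cell wells. Seeding 24 h before dosing; ERα 5000, AhR 3250 cells/well. 11-point dilutions, duplicates, ≥3 independent runs. Methanol <1%. IC10 caps data used for EC10/ECIR1.5.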

HEK293T (ERα) = conditions: for IC10, linear transformed / IC10, linear / logIC10: dosing range all; for IC10, HEK293, ERα: HEK293 (ERα assay cells)
In short: as §1

HEK293H (PPARγ) = conditions: for IC10, linear transformed / IC10, linear / logIC10: PPARγ bioassay cytotoxicity; for IC10, linear: linear model; for logIC10: log-logistic model; for IC10, HEK293, PPARγ: cytotoxicity, HEK293 (PPARγ assay cells)
In short: as §1

MCF7 (ARE/MMP) = conditions: for IC10, linear transformed / IC10, linear / logIC10: dosing range all; for IC10, MCF7, MMP: MCF7, MMP readout
In short: as §1

[1] = molecular target: T1, Peroxisome proliferator-activated receptor γ (Homo sapiens, UniProt P37231); experiment: cell-based; conditions: for EC10, linear transformed / EC10, linear / logEC10: PPARγ bioassay; for EC10, linear: linear model; for logEC10: log-logistic model; for SR-ScorePPARγ: SR-Score, sigma k=1, x=5; for EC10, PPARγ: effect; for log(1/EC10) PPARγ: input of the ToxPi score, values up to 1.00; for Emax: read-out: Emax%PPARγ
T1 sequence (P37231 238-505 limits assumed): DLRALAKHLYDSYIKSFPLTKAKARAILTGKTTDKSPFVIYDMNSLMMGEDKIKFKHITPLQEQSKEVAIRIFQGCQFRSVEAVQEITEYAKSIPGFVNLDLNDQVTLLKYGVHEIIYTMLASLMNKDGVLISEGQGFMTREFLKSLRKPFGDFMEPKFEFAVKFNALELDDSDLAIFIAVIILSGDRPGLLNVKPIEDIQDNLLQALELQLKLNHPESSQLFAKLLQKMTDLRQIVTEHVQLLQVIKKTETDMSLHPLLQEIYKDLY
In short: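 ERα-UAS-bla GripTite and PPARγ-UAS-bla β-lactamase reporter cells were seeded and held 24 h at 37 °C, 5% CO₂ before dosing. EC10 values used only concentrations below the IC10 from IncuCyte confluency. Emax% is the log-logistic curve maximum relative to the reference chemical's maximum.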

[2] = Bioassay ERα, cytotoxicity, linear model fit
[3] = Bioassay ERα, cytotoxicity, log-logistic model fit
[4] = Bioassay ARE, cytotoxicity, linear model fit
[5] = Bioassay ARE, cytotoxicity, log-logistic model fit
[6] = MMP bioassay cytotoxicity, linear model
[7] = MMP bioassay cytotoxicity, log-logistic model

| SMILES | IC10, linear transformed (H4IIe (AhR CALUX)) | IC10, linear (H4IIe (AhR CALUX)) | logIC10 (H4IIe (AhR CALUX)) | IC10, H4IIe, AhR (H4IIe (AhR CALUX)) [µM] | IC10, linear transformed (HEK293T (ERα); Bioassay ERα, cytotoxicity) | IC10, linear (HEK293T (ERα); [2]) | logIC10 (HEK293T (ERα); [3]) | IC10, HEK293, ERα (HEK293T (ERα); cytotoxicity) [µM] | IC10, HEK293, PPARγ (HEK293H (PPARγ)) [µM] | IC10, linear (MCF7 (ARE/MMP); [4]) | logIC10 (MCF7 (ARE/MMP); [5]) | IC10, linear transformed (MCF7 (ARE/MMP); MMP bioassay cytotoxicity) | IC10, linear (MCF7 (ARE/MMP); [6]) | logIC10 (MCF7 (ARE/MMP); [7]) | IC10, MCF7, MMP (MCF7 (ARE/MMP); cytotoxicity) [µM] | SR-ScorePPARγ [1] | EC10, PPARγ [1] [µM] | log(1/EC10) PPARγ [1] | Emax [1] [%] | IC10, linear transformed (HEK293H (PPARγ); dosing range all) | other results |
| --- | --- | --- | --- | --- | --- | --- | --- | --- | --- | --- | --- | --- | --- | --- | --- | --- | --- | --- | --- | --- | --- |
| CC(C)(c1cc(Cl)c(O)c(Cl)c1)c1cc(Cl)c(O)c(Cl)c1 [TCBPA, 2,2',6,6'-Tetrachlorobisphenol A] | 9.01E-05 | no cytotoxicity | -4.05 | 90.1 | 6.86E-06 | 1.51E-05 | -4.77 | 15.1 | 18.4 | 8.16E-05 | -4.11 | 9.30E-05 | 7.25E-05 | -4.03 | 93 | 1.00 | 0.155 | 0.96 | 32 |  | IC10, linear transformed (HEK293H (PPARγ); dosing range high): 5.23E-06; IC10, linear (HEK293H (PPARγ); dosing range high): 1.84E-05; logIC10 (HEK293H (PPARγ); dosing range high): -4.74; IC10, linear transformed (HEK293H (PPARγ); dosing range low): 7.55E-07; IC10, linear (HEK293H (PPARγ); dosing range low): no cytotoxicity; logIC10 (HEK293H (PPARγ); dosing range low): no cytotoxicity; IC10, linear transformed (MCF7 (ARE/MMP); Bioassay ARE, cytotoxicity): 7.84E-05; IC10, MCF7, ARE (MCF7 (ARE/MMP); cytotoxicity, MCF7, ARE readout): 78.4 µM; EC10, linear transformed ([1]; dosing range high): 4.16E-08; EC10, linear ([1]; dosing range high): 7.40E-08; logEC10 ([1]; dosing range high): -7.38; EC10, linear transformed ([1]; dosing range low): 1.55E-07; EC10, linear ([1]; dosing range low): 1.92E-07; logEC10 ([1]; dosing range low): -6.81 |
| Cc1cc(Cc2cc(C)c(O)c(C)c2)cc(C)c1O [TMBPF, Bis(3,5-dimethyl-4-hydroxyphenyl)methane] | 1.05E-04 | 1.11E-04 | -3.98 | 105 | 5.55E-06 | 6.58E-06 | -5.17 | 6.58 | 2.95 | no cytotoxicity | no cytotoxicity | 1.42E-05 | no cytotoxicity | -4.85 | 14.2 | 0.98 | 0.329 | 0.92 | 18 | 4.21E-07 | Toxic ratio (TR) TRAhR (H4IIe (AhR CALUX); against baseline cytotoxicity): 0.13; Toxic ratio (TR) TRERα (HEK293T (ERα); against baseline cytotoxicity): 0.68; IC10, linear (HEK293H (PPARγ); dosing range all): 3.65E-06; logIC10 (HEK293H (PPARγ); dosing range all): -5.53; Toxic ratio (TR) TRPPARγ (HEK293H (PPARγ); against baseline cytotoxicity): 1.52; Toxic ratio (TR) TRMMP (MCF7 (ARE/MMP); against baseline cytotoxicity, MMP readout): 0.95; EC10, PPARγ (M) ([1]; 10% of maximum effect of rosiglitazone): 3.29 × 10^–7 M; EC10, linear transformed ([1]; dosing range all): 3.29E-07; EC10, linear ([1]; dosing range all): 5.55E-07; logEC10 ([1]; dosing range all): -6.48; Specificity ratio (SRbaseline) SRPPARγ ([1]; against baseline cytotoxicity): 13.64; Specificity ratio (SRcytotoxicity) SRPPARγ ([1]; against experimental cytotoxicity): 8.97 |
| CC1(C)[C@H](O)C(C)(C)[C@H]1O [Trans TMCD] | 1.03E-02 | 8.94E-03 | -1.99 |  |  |  |  |  |  | no cytotoxicity | no cytotoxicity |  | no cytotoxicity | no cytotoxicity |  |  |  |  |  | 1.52E-03 | IC10, linear transformed (HEK293T (ERα); ERα bioassay cytotoxicity): 5.38E-03; IC10, linear (HEK293T (ERα); ERα bioassay cytotoxicity, linear model): no cytotoxicity; logIC10 (HEK293T (ERα); ERα bioassay cytotoxicity, log-logistic model): no cytotoxicity; IC10, linear (HEK293H (PPARγ); dosing range all): no cytotoxicity; logIC10 (HEK293H (PPARγ); dosing range all): no cytotoxicity; EC10, linear ([1]; dosing range all): no effect; logEC10 ([1]; dosing range all): no effect |
